Source: publication PMC9658216, “Topical Administration of a Novel Acetylated Tetrapeptide Suppresses Vascular Permeability and Immune Responses and Alleviates Atopic Dermatitis in a Murine Model” (International Journal of Molecular Sciences, 2022)

Legend:
filaggrin (FLG) = experiment: Skin filaggrin (FLG) ELISA; assay type: in vivo, mouse; conditions: n = 10; for FLG level in dorsal skin: mean ± SD
Experimental: To induce experimental AD-like skin lesions in mouse, we used cutaneous Biostir-AD for challenging NC/Nga mice, according to the manufacturer’s instructions. After 1 week of acclimation, AD was induced. Briefly, the dorsal part of each mouse was shaved with an electric shaver, and then the remaining hair was removed using a depilatory cream. Twice weekly for three weeks, growing hair was shaved with the electric shaver, followed by application of 150 μL of 4% sodium dodecyl sulfate to the treated area (barrier disruption). Biostir-AD (200 mg/mouse) was applied 3 h after barrier disruption. Fifty mice were divided into five groups of five mice per cage (n = 10 per group): group 1, control (Biostir-AD + vehicle (distilled water only)); group 2, 0.1% tacrolimus (Biostir-AD + Protopic (positive control)); group 3, 0.004% Ac-RLYE (Biostir-AD + 0.004% Ac-RLYE in distilled water); group 4, 0.02% Ac-RLYE (Biostir-AD + 0.02% Ac-RLYE in distilled water); and group 5, 0.1% Ac-RLYE (Biostir-AD + 0.1% Ac-RLYE in distilled water). Ac-RLYE or 0.1% tacrolimus (100 μL/mouse) was applied daily for 4 weeks. The concentration of Ac-RLYE used in the present study was determined based on the results of previous preliminary experiments (unpublished data). The mice were sacrificed after 4 weeks of Ac-RLYE treatment (Figure 2A, on Day 48). The dorsal skin was collected from mice after 4 weeks of Ac-RLYE or tacrolimus treatment and stored at −80 °C until use. The dorsal skin tissues were homogenized in RIPA lysis buffer containing a protease inhibitor and a phosphatase inhibitor and centrifuged at 13,000 rpm for 10 min at 4 °C. The supernatant was collected for a protein assay using a Pierce™ BCA Protein Assay Kit (Thermo Fisher Scientific, Inc., Waltham, MA, USA). The level of FLG in mouse skin tissue was quantified using an ELISA kit (MyBioSource, Inc., San Diego, CA, USA) in accordance with the manufacturer’s instructions.

NC/Nga mice [1] = experiment: Dermatitis severity score in HDM (Biostir-AD)-induced AD-like skin lesions; assay type: in vivo; conditions: topical 100 μL/mouse daily for 4 weeks, Day 48, mean ± SD, n = 10
Experimental: (§1) To induce experimental AD-like skin lesions in mouse, we used cutaneous Biostir-AD for challenging NC/Nga mice, according to the manufacturer’s instructions. After 1 week of acclimation, AD was induced. Briefly, the dorsal part of each mouse was shaved with an electric shaver, and then the remaining hair was removed using a depilatory cream. Twice weekly for three weeks, growing hair was shaved with the electric shaver, followed by application of 150 μL of 4% sodium dodecyl sulfate to the treated area (barrier disruption). Biostir-AD (200 mg/mouse) was applied 3 h after barrier disruption. Fifty mice were divided into five groups of five mice per cage (n = 10 per group): group 1, control (Biostir-AD + vehicle (distilled water only)); group 2, 0.1% tacrolimus (Biostir-AD + Protopic (positive control)); group 3, 0.004% Ac-RLYE (Biostir-AD + 0.004% Ac-RLYE in distilled water); group 4, 0.02% Ac-RLYE (Biostir-AD + 0.02% Ac-RLYE in distilled water); and group 5, 0.1% Ac-RLYE (Biostir-AD + 0.1% Ac-RLYE in distilled water). Ac-RLYE or 0.1% tacrolimus (100 μL/mouse) was applied daily for 4 weeks. The concentration of Ac-RLYE used in the present study was determined based on the results of previous preliminary experiments (unpublished data). The mice were sacrificed after 4 weeks of Ac-RLYE treatment (Figure 2A, on Day 48). The severity of the dermatitis was measured macroscopically and scored once a week by using a previously established method based on the clinical signs and symptoms of AD, namely, erythema (hemorrhage), edema, excoriation (erosion), and scaling (dryness). The total dermatitis severity score was defined as the sum of the component scores (0, no symptoms; 1, mild; 2, moderate; 3, severe) for each mouse, ranging from 0 to 12.

IgE = experiment: Plasma IgE ELISA; assay type: in vivo, mouse; conditions: Day 48, topical application, versus vehicle-treated group, n = 10
Experimental: (§2) To induce experimental AD-like skin lesions in mouse, we used cutaneous Biostir-AD for challenging NC/Nga mice, according to the manufacturer’s instructions. After 1 week of acclimation, AD was induced. Briefly, the dorsal part of each mouse was shaved with an electric shaver, and then the remaining hair was removed using a depilatory cream. Twice weekly for three weeks, growing hair was shaved with the electric shaver, followed by application of 150 μL of 4% sodium dodecyl sulfate to the treated area (barrier disruption). Biostir-AD (200 mg/mouse) was applied 3 h after barrier disruption. […] The concentration of Ac-RLYE used in the present study was determined based on the results of previous preliminary experiments (unpublished data). […]
The blood samples were drawn from mice, and the plasma was separated by centrifugation at 10,000× g for 10 min at 4 °C and stored at −80 °C until tested. The plasma level of IgE was measured by ELISA according to the manufacturer’s instructions (Mouse IgE ELISA Kit, Abcam, Cambridge, UK).

NC/Nga mice [2] = experiment: Ear thickness in HDM-induced AD model; assay type: in vivo, mouse; conditions: n = 10
Experimental: as §1, with “The mice were sacrificed after 4 weeks of Ac-RLYE treatment (Figure 2A, on Day 48). The severity of the dermatitis was measured macroscopically and scored once a week by using a previously established method based on the clinical signs and symptoms of AD, namely, erythema (hemorrhage), edema, excoriation (erosion), and scaling (dryness). The total dermatitis severity score was defined as the sum of the component scores (0, no symptoms; 1, mild; 2, moderate; 3, severe) for each mouse, ranging from 0 to 12.” left out
Ear thickness was measured on the first day of Ac-RLYE application and then once a week using calipers.

NC/Nga mice [3] = experiment: Mast cell infiltration (toluidine blue staining); assay type: in vivo, mouse; conditions: Day 48, versus vehicle-treated group, n = 10
Experimental: as §2
(§3) The dorsal skin tissues were isolated, fixed in 10% formalin immediately after excision from the mice, and embedded in paraffin. […] Skin samples were observed and measured with an Olympus BX53 light microscope (Olympus Corporation, Tokyo, Japan). From the histopathological findings, the severity of skin manifestations was assessed on the epidermis (hypertrophy, hyperkeratosis, and infiltration by inflammatory cells) and on the dermis (infiltration by inflammatory cells) and was expressed as the sum of the individual score grades from 0 to 3 (0, no symptoms; 1, mild; 2, moderate; 3, severe), as described previously. […]

NC/Nga mice [4] = experiment: Histological analysis (H&E) of AD-like skin lesions; assay type: in vivo, mouse; conditions: n = 10
Experimental: as §2, §3

HUVECs = experiment: Immunofluorescence of ZO-1 and VE-cadherin junctions in VEGF-A-stimulated HUVECs; assay type: cell-based, human; conditions: HUVECs pre-treated 30 min with 0.15 nM Ac-RLYE, then 10 ng/mL VEGF-A for 1 h; confocal immunofluorescence, Image J; n = 3
Experimental: Figure 1 Ac-RLYE inhibits VEGF-A-induced junctional integrity loss in HUVECs. Cells were pre-treated for 30 min with Ac-RLYE (0.15 nM) followed by stimulation with 10 ng/mL VEGF-A (V) for 1 h. (A) Confocal images of ZO-1 and VE-cadherin. (B) Quantification of ZO-1 and VE-cadherin at contact sites between endothelial cells (n = 3). Data are represented as mean ± SD values. *** p < 0.001.
Collagenase type II (Worthington Biochemical Corporation, Lakewood, NJ) was used to isolate human umbilical vein endothelial cells (HUVECs) from umbilical cord veins. The cells were cultured on gelatin-coated plates in Medium 199 supplemented with 20% FBS, 100 U/mL penicillin–streptomycin, 3 ng/mL bFGF, and 5 U/mL heparin. Trypsinization was used to collect the cells (up to passage 7), which were then used for assays.
HUVECs were grown as a monolayer on 2% gelatin-coated cover glasses and cultured in M199 medium containing 1% FBS. The cells were pretreated with 0.15 nM Ac-RLYE for 30 min and stimulated with 10 ng/mL VEGF-A for 1 h. […] The levels of VE-cadherin and ZO-1 were quantified using Image J software.

[5] = system: Th1, Th2 and Th17 cytokines; experiment: qRT-PCR of cytokine mRNA in AD-like skin lesions; assay type: in vivo, mouse; conditions: skin at Day 48, normalized to GAPDH, versus vehicle, n = 10
Experimental: as §1, with “48).” for “48). The severity of the dermatitis was measured macroscopically and scored once a week by using a previously established method based on the clinical signs and symptoms of AD, namely, erythema (hemorrhage), edema, excoriation (erosion), and scaling (dryness). The total dermatitis severity score was defined as the sum of the component scores (0, no symptoms; 1, mild; 2, moderate; 3, severe) for each mouse, ranging from 0 to 12.”
Both the ear and dorsal skin of each mouse were excised using a surgical knife, pooled, and used for RNA isolation. Total RNA was prepared using an RNA isolation kit (GeneAll® Hybrid-R™, GeneAll, Korea) following the manufacturer’s instructions. RNA was quantified using a BioTek Take3^TM Multi-Volume plate (Agilent BioTek Instruments, Winooski, VT, USA). An equal amount of total RNA was reverse-transcribed using ReverTra Ace™ qPCR RT Master Mix with gDNA Remover (Toyobo CO., LTD., Osaka, Japan) according to the manufacturer’s instructions. Real time-PCR was performed on a CFX96™ Touch Real-Time PCR System (Bio-Rad, Hercules, CA) using TB Green® Premix Ex Taq™ (Takara, Shiga, Japan). Quantification of the target gene expression was determined by the comparative […] method. The relative expression levels were determined by normalizing expression to glyceraldehyde 3-phosphate dehydrogenase (GAPDH). The level of each target gene was expressed as the relative fold change.

NC/Nga mice [6] = experiment: Differential cell counting of blood; assay type: in vivo, mouse; conditions: differential counting at Day 48; versus vehicle-treated control; n = 10
Experimental: as §1, with “48).” for “48). The severity of the dermatitis was measured macroscopically and scored once a week by using a previously established method based on the clinical signs and symptoms of AD, namely, erythema (hemorrhage), edema, excoriation (erosion), and scaling (dryness). The total dermatitis severity score was defined as the sum of the component scores (0, no symptoms; 1, mild; 2, moderate; 3, severe) for each mouse, ranging from 0 to 12.”
Whole blood samples were collected from the mice and used for analysis. […]

Molecule	FLG level in dorsal skin (filaggrin (FLG); 0.1% tacrolimus ointment topical daily for 4 weeks) [pg/mL]	Dermatitis score (sum of erythema, edema, excoriation, scaling; 0-12) (NC/Nga mice [1]; 0.1% tacrolimus ointment (Protopic))	Plasma IgE (IgE)	FLG level in dorsal skin (filaggrin (FLG); 0.1% Ac-RLYE topical daily for 4 weeks) [pg/mL]	Protein level of FLG versus vehicle-treated AD group (filaggrin (FLG); Ac-RLYE groups 0.004-0.1%, dose-dependent)	Dermatitis score (sum of erythema, edema, excoriation, scaling; 0-12) (NC/Nga mice [1]; 0.004% in distilled water)	Dermatitis score (sum of erythema, edema, excoriation, scaling; 0-12) (NC/Nga mice [1]; 0.02% in distilled water)	Dermatitis score (sum of erythema, edema, excoriation, scaling; 0-12) (NC/Nga mice [1]; 0.1% in distilled water)	Effect on ear thickness compared with tacrolimus (NC/Nga mice [2]; doses above 0.02%, Day 48)	Increase in ear thickness after HDM (NC/Nga mice [2]; topical 0.004-0.1% once daily for 4 weeks, dose-dependent, versus vehicle)	Accumulation of mast cells in AD-like skin lesion (NC/Nga mice [3])	Infiltration of inflammatory cells in epidermis and dermis (NC/Nga mice [4]; Day 48, all Ac-RLYE-treated groups versus vehicle-treated HDM group)	Scores of hypertrophy and hyperkeratosis in epidermis (NC/Nga mice [4]; Day 48, versus vehicle-treated HDM group)	VEGF-induced cellular junction disruption (ZO-1 and VE-cadherin at cell-cell contact sites) (HUVECs)	Expression of IFN-γ [5]	Expression of IL-17A (Th17 cytokine) [5]	Expression of Th1 cytokines IL-23 and TNF-α [5]	mRNA levels of Th2-type cytokines IL-4, IL-13, IL-31 and Th2 chemokine CCL17 [5]	Number of leukocytes, neutrophils and eosinophils in blood (NC/Nga mice [6])
C=CC[C@@H]1/C=C(\C)C[C@H](C)C[C@H](OC)[C@H]2O[C@@](O)(C(=O)C(=O)N3CCCC[C@H]3C(=O)O[C@H](/C(C)=C/[C@@H]3CC[C@@H](O)[C@H](OC)C3)[C@H](C)[C@@H](O)CC1=O)[C@H](C)C[C@@H]2OC [tacrolimus, reference compound]	1444.8 ± 110.5	4.5 ± 2.4																	
N-acetyl-Arg-Leu-Tyr-Glu [Ac-RLYE]			significantly lowered	1469.4 ± 105.2	significantly restored	7.4 ± 0.8	5.8 ± 2.3	4.5 ± 2.4	slightly better than that of tacrolimus	significantly attenuated	reduced	less infiltration	decreased	significantly attenuated	increased	suppressed	inhibited	remarkably inhibited	dose-dependently lowered
